Source: patent US9732079B2, “Yellow reduced pyrroloquinoline quinone crystal and method of producing the same, and food, pharmaceutical, gel, composition and method of producing composition” (Mitsubishi Gas Chemical Company, Inc., priority 2013, dated 2017)

Tests used:
Assay type in all cases: physicochemical
[1] = Test on solubility in ethanol; conditions: 40 mg in ethanol 2 mL, ultrasonically treated one minute, room temperature 30 minutes or more, absorbance at 330 nm
Protocol: [Test on Solubility in Ethanol]
(§1) The crystal (40 mg) obtained in Example 1 was added to ethanol (2 mL), and was ultrasonically treated for one minute. The solution was left at room temperature for 30 minutes or more, and thereafter the resulting precipitate was centrifuged and the resulting supernatant was diluted with dimethyl sulfoxide to analyze the concentration at an absorbance at 330 nm.
as §1, with “2” for “1”
as §1, with “obtained in Comparative Example 1” for “obtained in Example 1”, “330 nm. The concentration was 1.4 mg/ML.” for “330 nm.”

[2] = Dispersibility in ethanol: gelation test; conditions: for Homogeneity of ethanol mixture (upper and lower portions) / Appearance of ethanol mixture after standing: 20 mg in ethanol 2 mL; for Homogeneity of ethanol mixture (upper and lower portions): left at 20° C. for two to three hours; for Appearance of ethanol mixture after standing: ultrasonically treated one minute, left at 20° C. for two hours; for Appearance after adding ethanol mixture to water: 20 μL of gelled product / ethanol mixture added to water 1 mL
Protocol: [Dispersibility in Ethanol: Gelation Test]
The crystal (20 mg) obtained in Example 1 was added to ethanol (2 mL), and was ultrasonically treated for one minute. […] The gelled product was generated through the following process: the reduced PQQ crystals according to the present invention turned into fibers, and alcohol was encapsulated between these fibers in the form of a net to generate a gel.
The solid (20 mg) obtained in Comparative Example 1 was added to ethanol (2 mL), and was ultrasonically treated for one minute.

[3] = Test on stability of crystal (dispersed in water); conditions: 0.2 g mixed with water 1 mL, room temperature
Protocol: [Test on Stability of Crystal (Dispersed in Water)]
The crystal (0.2 g) obtained in Example 1 was mixed with water (1 mL).
The solid (0.2 g) obtained in Comparative Example 1 was mixed with water (1 mL).
The crystal (0.2 g) obtained in Comparative Example 2 was mixed with water (1 mL).

[4] = Test on solubility in water; conditions: 30 mg in water 1 mL, ultrasonically treated one minute, room temperature 30 minutes or more, absorbance at 310 nm
Protocol: [Test on Solubility in Water]
as §1, with “(30” for “(40”, “water (1” for “ethanol (2”, “water” for “dimethyl sulfoxide”, “310” for “330”, “nm. The concentration was 0.13 mg/mL.” for “nm.”
as §1, with “(30” for “(40”, “2” for “1”, “water (1” for “ethanol (2”, “water” for “dimethyl sulfoxide”, “310” for “330”, “nm. The concentration was 0.14 mg/mL.” for “nm.”
The solid (30 mg) obtained in Comparative Example 1 was added to water (1 mL), and was ultrasonically treated for one minute. The solution was left at room temperature for 30 minutes or more, and thereafter the resulting precipitate was centrifuged and the resulting supernatant was diluted with water to analyze the concentration at an absorbance at 310 nm. The concentration was 0.019 mg/mL.

Structure (SMILES): O=C(O)c1cc(C(=O)O)c2c(n1)c(O)c(O)c1cc(C(=O)O)[nH]c12 [Comparative Example 1, reduced pyrroloquinoline quinone]
- Solubility in ethanol (concentration of supernatant) [1]: 1.4 mg/mL
- Homogeneity of ethanol mixture (upper and lower portions) [2]: had a difference between the upper and lower portions
- Appearance of ethanol mixture after standing [2]: a black solid was sedimented and the solution was slightly yellowed
- Appearance after adding ethanol mixture to water [2]: a solution having a black solid sedimented therein
- Appearance dispersed in water after one hour [3]: a solution having a black solid sedimented therein
- Solubility in water (concentration of supernatant) [4]: 0.019 mg/mL

Structure (SMILES): O=C(O)c1cc(C(=O)O)c2c(n1)c(O)c(O)c1cc(C(=O)O)[nH]c12 [Comparative Example 2, reduced pyrroloquinoline quinone]
- Appearance dispersed in water after one hour [3]: dark red dispersion
- Appearance dispersed in water after two days [3]: a black precipitate was generated and the solution was not homogenous

Structure (SMILES): O=C(O)c1cc(C(=O)O)c2c(n1)c(O)c(O)c1cc(C(=O)O)[nH]c12 [Example 2, reduced pyrroloquinoline quinone]
- Solubility in ethanol (concentration of supernatant) [1]: 3.2 mg/mL
- Solubility in water (concentration of supernatant) [4]: 0.14 mg/mL

Structure (SMILES): O=C(O)c1cc(C(=O)O)c2c(n1)c(O)c(O)c1cc(C(=O)O)[nH]c12 [Example 1, reduced pyrroloquinoline quinone]
- Solubility in ethanol (concentration of supernatant) [1]: 8.5 mg/mL
- Homogeneity of ethanol mixture (upper and lower portions) [2]: homogenous without any difference between upper and lower portions
- Appearance of ethanol mixture after standing [2]: orange gelled product
- Appearance after adding ethanol mixture to water [2]: yellow homogenous dispersion
- Dispersibility (overall conclusion) ([2]; ethanol gelation test, compared with Comparative Example 1): significantly high dispersibility
- Appearance dispersed in water after one hour [3]: yellow homogenous dispersion
- Appearance dispersed in water after two days [3]: the dispersion remained the same
- Solubility in water (concentration of supernatant) [4]: 0.13 mg/mL
